assay: In vitro pharmacokinetic (metabolic) stability in human whole blood; type: in vitro ADME; settings: 5 μM test compound, 37° C., time points 0, 0.5, 1, 4, 6 and 24 hours, LC/MS/MS, percent compound remaining
Protocol: In Vitro Pharmacokinetic Stability Evaluation
Compounds were tested for metabolic stability in human whole blood. Such testing is commonly undertaken prior to or along with advanced preclinical testing in order to identify compounds with desirable pharmacokinetic properties. Into each of 6 centrifuge tubes was added 2 μL of test compound and 198 μL of human whole blood, taken from normal, healthy volunteers, to achieve a final concentration of 5 μM. Tubes were then incubated at 37° C. at approximately 100 rpm on an orbital shaker. One of the tubes was taken at designated time points including 0, 0.5, 1, 4, 6 and 24 hours. The reaction was stopped by the addition of 4 volumes of cold methanol. Samples were centrifuged at 20,000 rpm for 20 minutes to precipitate protein. A 200 μL aliquot of the supernatant was used for LC/MS/MS analysis for each compound at each time point. All experiments were performed in duplicate. The LC system comprised a Shimadzu liquid chromatograph separation system equipped with degasser DGU-20A3, solvent delivery unit LC-20AD, system controller CBM-20A, column oven CTO-10ASVP and CTC Analytics HTC PAL System. Mass spectrometric analysis was performed using an API 4000 instrument from AB Inc. (Canada) with an ESI interface. The data acquisition and control system were created using Analyst 1.5 software from ABI Inc. All calculations were carried out using Microsoft Excel (2003). Percent compound remaining at each time point was estimated by determining the peak areas from extracted ion chromatograms.

Compound | Half Life [h]
COCCOCCOCCOc1cccc(C2=N[C@@](C)(C(=O)OC(C)C)CS2)c1O [Example 1, (S)-isopropyl 2-(2-hydroxy-3-(2-(2-(2-methoxyethoxy)ethoxy)ethoxy)phenyl)-4-methyl-4,5-dihydrothiazole-4-carboxylate] | 1 to 4
COCCOCCOCCOc1cccc(C2=N[C@@](C)(C(=O)OC(C)C)CS2)c1OC(=O)N1CCCC1 [Example 2, (S)-isopropyl 2-(3-(2-(2-(2-methoxyethoxy)ethoxy)ethoxy)-2-(pyrrolidine-1-carbonyloxy)phenyl)-4-methyl-4,5-dihydrothiazole-4-carboxylate] | >24
COCCOCCOCCOc1cccc(C2=N[C@@](C)(C(=O)O)CS2)c1OC(=O)N1CCCC1 [Example 3, (S)-2-(3-(2-(2-(2-methoxyethoxy)ethoxy)ethoxy)-2-(pyrrolidine-1-carbonyloxy)phenyl)-4-methyl-4,5-dihydrothiazole-4-carboxylic acid] | 1 to 4
COCCOCCOCCOc1cccc(C2=N[C@@](C)(C(=O)OC(C)C)CS2)c1OC(=O)N(C)c1ccccc1 [Example 4, (S)-isopropyl 2-(3-(2-(2-(2-methoxyethoxy)ethoxy)ethoxy)-2-(methyl(phenyl)carbamoyloxy)phenyl)-4-methyl-4,5-dihydrothiazole-4-carboxylate] | >24
COCCOCCOCCOc1cccc(C2=N[C@@](C)(C(=O)O)CS2)c1OC(=O)N(C)c1ccccc1 [Example 5, (S)-2-(3-(2-(2-(2-methoxyethoxy)ethoxy)ethoxy)-2-(methyl(phenyl)carbamoyloxy)phenyl)-4-methyl-4,5-dihydrothiazole-4-carboxylic acid] | 0.5 to 1
COCCOCCOCCOc1cccc(C2=N[C@@](C)(C(=O)O)CS2)c1OC(=O)C(C)C [Example 6, (S)-2-(2-(isobutyryloxy)-3-(2-(2-(2-methoxyethoxy)ethoxy)ethoxy)phenyl)-4-methyl-4,5-dihydrothiazole-4-carboxylic acid] | 6 to 24
